Results on one compound are retold here after ChEMBL document CHEMBL1139783, “Cyclonatsudamine A, a new vasodilator cyclic peptide from Citrus natsudaidai” (2007).

Calls of active or inactive are those of the source. No cut-off for these calls is given here. Where a SMILES comes first, the peptide text is derived from it.

The subject of assay [1] is Aorta. Briefly: Vasorelaxation effect on norepinephrine-induced contractions in rat aorta with endothelium at 100 uM. Format: functional. The arrangement: scale not given: the % may be the effect or the level left.
The subject of assay [2] is Aorta. As to the kind of experiment: Vasorelaxation effect on norepinephrine-induced contractions in rat aorta with endothelium at 0.1 uM. Format: functional. Details: scale not given: the % may be the effect or the level left.
In assay [3] the test system is Aorta. As to the kind of experiment: Inhibition of drug-induced vasorelaxation in rat aorta precontracted with norepinephrine in presence of nitric oxide synthase inhibitor L-NAME. The format is functional, tissue-based.
Assay [4] has as its system Aorta. As to the kind of experiment: Vasorelaxation effect on norepinephrine-induced contractions in rat endothelium-denuded aorta. The format is functional, tissue-based.

For `CC(C)C[C@@H]1NC(=O)[C@H](Cc2ccc(O)cc2)NC(=O)CNC(=O)[C@H](CO)NC(=O)[C@@H]2CCCN2C(=O)[C@@H]2CCCN2C(=O)[C@H](CC(C)C)NC1=O` [CYCONATSUDAMINE A] (cyclo(GYLLPPS)), the figures for the Activity in the assay on Aorta [1] and in the assay on Aorta [2] were 80% and 40%, respectively. Moreover, the outcome in the assay with Aorta [3] was Active. Besides, in the assay with Aorta [4], the outcome was inactive.
